Data reported in the supplement of paper PMC10307832.

How the values were obtained:
Assay in all cases: relative viability (nuclei count vs DMSO), 5 days (fraction); higher = more cells survive
Doxorubicin + Tozasertib = compound: COc1cccc2c1C(=O)c1c(O)c3c(c(O)c1C2=O)C[C@@](O)(C(=O)CO)C[C@@H]3O[C@H]1C[C@H](N)[C@H](O)[C@H](C)O1 [Doxorubicin] + Cc1cc(Nc2cc(N3CCN(C)CC3)nc(Sc3ccc(NC(=O)C4CC4)cc3)n2)n[nH]1 [Tozasertib] (partner 0.1 µM)
Procedure, shortened: (§1)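 Medians of duplicate plates are given as relative viability. That measure is the nuclei count in treated wells divided by the count in vehicle wells. Counts were taken on 4× images of lung cancer cell lines in 1536-well plates, 5 days after pin-tool dosing the day after seeding with one drug alone or a fixed anchor-drug dose plus five library-drug doses (not always all listed) in √10 steps.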

BAY61-3606 + Dasatinib = compound: COC1=C(C=C(C=C1)C2=CC3=NC=CN3C(=N2)NC4=C(C=CC=N4)C(=O)N)OC [BAY61-3606] + Cc1nc(Nc2ncc(C(=O)Nc3c(C)cccc3Cl)s2)cc(N2CCN(CCO)CC2)n1 [Dasatinib] (partner 0.075 µM)
Procedure, shortened: as §1

Doxorubicin + Bortezomib = compound: COc1cccc2c1C(=O)c1c(O)c3c(c(O)c1C2=O)C[C@@](O)(C(=O)CO)C[C@@H]3O[C@H]1C[C@H](N)[C@H](O)[C@H](C)O1 [Doxorubicin] + CC(C)C[C@H](NC(=O)[C@H](Cc1ccccc1)NC(=O)c1cnccn1)B(O)O [Bortezomib] (partner 0.002 µM)
Procedure, shortened: as §1

Doxorubicin + Pemetrexed = compound: COc1cccc2c1C(=O)c1c(O)c3c(c(O)c1C2=O)C[C@@](O)(C(=O)CO)C[C@@H]3O[C@H]1C[C@H](N)[C@H](O)[C@H](C)O1 [Doxorubicin] + Nc1nc2[nH]cc(CCc3ccc(C(=O)N[C@@H](CCC(=O)O)C(=O)O)cc3)c2c(=O)[nH]1 [Pemetrexed] (partner 0.2 µM)
Procedure, shortened: as §1

Row | Cell Line | relative viability (Doxorubicin + Tozasertib; first compound 0.001 µM) | relative viability (Doxorubicin + Tozasertib; first compound 0.003162 µM) | relative viability (Doxorubicin + Tozasertib; first compound 0.01 µM) | relative viability (Doxorubicin + Tozasertib; first compound 0.03162 µM) | relative viability (Doxorubicin + Tozasertib; first compound 0.1 µM) | relative viability (BAY61-3606 + Dasatinib; first compound 0.02 µM) | relative viability (BAY61-3606 + Dasatinib; first compound 0.06325 µM) | relative viability (BAY61-3606 + Dasatinib; first compound 0.2 µM) | relative viability (BAY61-3606 + Dasatinib; first compound 0.6325 µM) | relative viability (BAY61-3606 + Dasatinib; first compound 2 µM) | relative viability (Doxorubicin + Bortezomib; first compound 0.001 µM) | relative viability (Doxorubicin + Bortezomib; first compound 0.003162 µM) | relative viability (Doxorubicin + Bortezomib; first compound 0.01 µM) | relative viability (Doxorubicin + Bortezomib; first compound 0.03162 µM) | relative viability (Doxorubicin + Bortezomib; first compound 0.1 µM) | relative viability (Doxorubicin + Pemetrexed; first compound 0.001 µM) | relative viability (Doxorubicin + Pemetrexed; first compound 0.003162 µM) | relative viability (Doxorubicin + Pemetrexed; first compound 0.01 µM) | relative viability (Doxorubicin + Pemetrexed; first compound 0.03162 µM) | relative viability (Doxorubicin + Pemetrexed; first compound 0.1 µM)
1 | NCI-H2228 | 0.276 | 0.269 | 0.21 | 0.125 | 0.107 | 0.572 | 0.498 | 0.571 | 0.46 | 0.278 | 0.88 | 1.05 | 0.617 | 0.254 | 0.124 | 0.335 | 0.344 | 0.32 | 0.278 | 0.244
2 | NCI-H2347 | 0.62 | 0.551 | 0.736 | 0.53 | 0.636 | 0.328 | 0.3 | 0.283 | 0.332 | 0.319 | 1.05 | 0.697 | 0.955 | 0.908 | 0.692 | 0.417 | 0.424 | 0.42 | 0.507 | 0.463
3 | NCI-H2405 | 0.847 | 0.759 | 0.74 | 0.693 | 0.546 | 0.203 | 0.205 | 0.201 | 0.181 | 0.185 | 1 | 1.01 | 0.973 | 0.994 | 0.994 | 1.05 | 1.11 | 1.05 | 0.942 | 0.445
4 | NCI-H3122 | 0.339 | 0.375 | 0.335 | 0.169 | 0.141 | 0.838 | 0.882 | 0.736 | 0.897 | 0.691 | 1.04 | 0.97 | 1.02 | 1.01 | 0.957 | 0.203 | 0.208 | 0.334 | 0.194 | 0.174
5 | PC-3 [JPC-3] | 0.887 | 0.888 | 0.915 | 0.866 | 0.856 |  | 1.07 | 1 | 0.928 | 0.862 | 0.81 | 0.926 | 0.863 | 0.79 | 0.8 | 1.2 | 1.12 | 1.15 | 1.05 | 0.663
6 | PC-14 | 0.598 | 0.573 | 0.599 | 0.59 | 0.487 | 0.269 | 0.249 | 0.264 | 0.287 | 0.176 | 0.775 | 0.964 | 0.861 | 0.979 | 0.94 | 0.139 | 0.135 | 0.118 | 0.0995 | 0.0845
7 | RERF-LC-KJ | 0.538 | 0.406 | 0.398 | 0.233 | 0.233 | 0.843 | 0.856 | 0.702 | 0.886 | 0.517 | 1.03 | 1.2 | 1.03 | 0.809 | 0.967 | 0.458 | 0.496 | 0.418 | 0.39 | 0.382
8 | SK-LU-1 | 0.318 | 0.326 | 0.288 | 0.173 | 0.179 | 0.2 | 0.148 | 0.148 | 0.169 | 0.152 |  | 1.19 | 1.25 | 0.945 | 0.671 | 0.929 | 1.08 | 0.903 | 0.601 | 0.513
9 | SW 1573 | 0.185 | 0.144 | 0.148 | 0.103 | 0.0879 | 0.535 | 0.416 | 0.43 | 0.373 | 0.203 | 0.98 | 1.1 | 0.817 | 0.466 | 0.339 | 0.869 | 0.807 | 0.263 | 0.144 | 0.105
